Results as given in patent US20220153750A1, “SALTS OF 5,6-DIHYDRO-4H-THIENO[2,3-C]PYRROL-4-ONE COMPOUND AS ERK INHIBITORS” (Eli Lilly and Company, priority 2019, published 2022).
≈ marks a conversion by molar mass, not a printed value.

Experiments:
Type in all cases: physicochemical
[1] = Compaction properties / tabletability (Instron compaction, tensile strength); conditions: for Tensile: 300 mg compact
Experimental: The purpose of this study is to determine the compaction properties of certain solid forms of the present invention. The experimental compaction testing is evaluated on Instron Universal Testing System equipped with a 50 kN load cell using Natoli 10 mm flat round punches and die for material compression. The profiles are generated at 5, 10, and 15 kN with a target tablet weight of 300 mg for each compact. The three compacts are made at each pressure set point while the Instron is traveling at 50 mm/minute. The compacts final weight is measured on a balance. The tablet's diameter and thickness is measured using Mitutoyo Thickness Gauge and hardness testing is completed on a Vankel Hardness tester using axially breakage.

[2] = Hygroscopicity (moisture sorption analysis at 25° C.); conditions: for Hygroscopicity, weight increase: 25° C.
Experimental: The purpose of this assay is to determine the hygroscopicity of the solid forms of the present invention under conditions normally encountered in manufacturing and storage of drug products. Moisture analysis is performed at 25° C. using a TA instrument. The following experimental conditions are used: sample size ˜3-20 mg, dry sample at 0% RH until <0.0 weight change over 10 minutes, 5-95% RH adsorption/desorption range, and 5% RH step interval. The minimum equilibration criterion is <0.01% weight change for 5 minutes.

[3] = Equilibrium solubility of crystalline solid forms in simulated fluids (SGF, FaSSIF, FedSSIF); conditions: for solubility thermodynamic at 24 h: thermodynamic from solid, room temperature
Experimental: The purpose of this assay is to measure the solubility of certain solid forms of the present invention in comparison to 6,6-dimethyl-2-{2-[(1-methyl-1H-pyrazol-5-yl)amino]pyrimidin-4-yl}-5-[2-(morpholin-4-yl)ethyl]-5,6-dihydro-4H-thieno[2,3-c]pyrrol-4-one (free base). pKa Determination is performed using a UV-metric method. The sample is titrated in a fast-UV triple titration between pH 2-12 at a concentration of 31-19 μM under aqueous condition. Subsequently, the sample is titrated in three UV-metric titrations from pH 1.5-10 at a concentration of 30-27 μM with no precipitation and the observed pKa averages are reported.
To determine the solubility of the three different crystal forms, a single aliquot of the test media (2 mL, see table 4) is added to an accurately weighed sample. Samples are mixed at room temperature for a period of 24 hours. If a solution is observed, more crystalline material is added and the suspension is slurried for at least 2 hours, after which, an aliquot is withdrawn, filtered through a 0.45 μm PTFE filter and characterized by HPLC using the following HPLC conditions: Column Waters)(Bridge Phenyl, 4.6×100 mm, 3.5 μm, mobile phase A is 0.% NH4OH in water, mobile phase B is MeOH, diluent is 75% ACN and 25% water, gradient is 50% A at time 0, 25% A at time 10-13 minutes, and 50% A at time 13.1 to 18 minutes with a flow rate of 0.9 mL/minute, a column temperature of 35° C., UV at 225 nM, an injection volume of 5 and autosampler at ambient temperature. The remaining solids are air dried prior to analysis by XRPD. One replicate from each sample has triplicate HPLC analysis. pH Measurement of the solution is performed using calibrated scientific pH equipment. […] The equilibrium solubility in simulated intestinal fluids of the free base (assumed crystalline) compared to the crystalline methanesulfonic acid dihydrate salt (Example 2) and 4-methylbenzenesulfonic acid salt (Example 3), (assumed crystalline) are shown in Table 4.

[4] = Formulation assessment: API powder flowability, compressibility, sticking; conditions: compared to the free base
Experimental: (§1) The purpose of this study is to evaluate the properties of certain solid forms of the present invention with respect to the suitability for manufacturing high drug load tablets. The API flowability is measured using a United States Pharmacopeia method for bulk/tapped density and a powder rheometer. The formula contains ˜64.6 wt % Example 2, 26.4 wt % microcrystalline cellulose (diluent/binder), 5 wt % croscarmellose sodium (disintegrant), 2 wt % sodium stearyl fumarate (lubricant), and 2 wt % silicone dioxide (glidant). The components are combined and tumble blended in a single step at a 40 g scale. The resulting blend is then tested using the same bulk/tapped density and powder rheometry tests. The blend is compressed on a single-station, instrumented tablet press. The accelerated studies are comprised of prototype tablets of methanesulfonic acid dihydrate (Example 2) at a 50% free base equivalence drug load. The tablets are prepared and stored in open-dish containers to evaluate stability. Samples are stored at 40° C./11% RH, 40° C./75% RH, 50° C./22% RH, and 50° C./50% RH. At designated time points the samples are characterized by XRPD for physical form and by HPLC using the following conditions: Column Zorbax Bonus-RP, 3.5-micron, 4.6×75 mm, mobile phase A is 0.1% TFA in water, mobile phase B is 0.1% TFA in ACN, gradient is 95% A at time 0 to 23% A at 9.5 minutes-12.1 minutes, 5% A at time 13-16 minutes, and 95% A at time 16.1 to 20 minutes with a flow rate of 1.5 mL/minute, a column temperature of 30° C., UV at 227 nM, an injection volume of 5 and autosampler at ambient temperature. The drug product formulation stress study under accelerated open dish conditions for methanesulfonic acid dihydrate (Example 2) is depicted in Table 5.

[5] = Accelerated open-dish physical stability of prototype tablet (XRPD, HPLC)
Experimental: as §1

Tensile ([1]; Pressure 64 MPa) [MPa] | Tensile ([1]; Pressure 127 MPa) [MPa] | Tensile ([1]; Pressure 191 MPa) [MPa] | Hygroscopicity, weight increase ([2]; 20% RH) | Hygroscopicity, weight increase ([2]; 60% RH) [wt %] | pH of the solution in solubility test ([3]; FaSSIF) | pH of the solution in solubility test ([3]; FedSSIF) | pH of the solution in solubility test ([3]; SGF) | solubility thermodynamic at 24 h ([3]; fessif, FedSSIF) [µg/mL] | solubility thermodynamic at 24 h ([3]; simulated gastric fluid, SGF) [µg/mL] | solubility thermodynamic at 24 h ([3]; FaSSIF) [µg/mL] | SMILES | also measured
0.4873 | 1.1966 | 2.1411 | – | – | – | – | – | – | – | – | OC[C@@H](O)[C@@H](O)[C@H](O)[C@H](O)CO [Mannitol SD200] | –
0.9687 | – | 3.1671 | – | – | – | – | – | – | – | – | OC[C@H]1O[C@@H](O[C@H]2[C@H](O)[C@@H](O)C(O)O[C@@H]2CO)[C@H](O)[C@@H](O)[C@H]1O (some centres unmarked) [Lactose Anhydrous] | Tensile ([1]; Pressure 128 MPa): 1.9119 MPa

Further lines, the molecule ahead of its results:

SMILES | Tensile ([1]; Pressure 64 MPa) [MPa] | Tensile ([1]; Pressure 127 MPa) [MPa] | Tensile ([1]; Pressure 191 MPa) [MPa] | Hygroscopicity, weight increase ([2]; 20% RH) | Hygroscopicity, weight increase ([2]; 60% RH) [wt %] | pH of the solution in solubility test ([3]; FaSSIF) | pH of the solution in solubility test ([3]; FedSSIF) | pH of the solution in solubility test ([3]; SGF) | solubility thermodynamic at 24 h ([3]; fessif, FedSSIF) [µg/mL] | solubility thermodynamic at 24 h ([3]; simulated gastric fluid, SGF) [µg/mL] | solubility thermodynamic at 24 h ([3]; FaSSIF) [µg/mL] | also measured
Cc1ccc(S(=O)(=O)O)cc1.Cn1nccc1Nc1nccc(-c2cc3c(s2)C(C)(C)N(CCN2CCOCC2)C3=O)n1 [Example 3, 6,6-Dimethyl-2-{2-[(1-methyl-1H-pyrazol-5-yl)amino]pyrimidin-4-yl}-5-[2-(morpholin-4-yl)ethyl]-5,6-dihydro-4H-thieno[2,3-c]pyrrol-4-one; 4-methylbenzenesulfonic acid] | – | – | – | <0.1 wt % | ~0.2 | 5.44 | 5.04 | 2.46 | 13500 | 7080 | 12200 | hygroscopicity profile for drug product manufacturing processes [2]: preferred hygroscopicity profiles; Hygroscopicity, weight increase ([2]; 90% RH): ~0.5 wt. % increase wt %; solubility compared to the free base ([3]; FaSSIF and FedSSIF): higher solubility
CS(=O)(=O)O.Cn1nccc1Nc1nccc(-c2cc3c(s2)C(C)(C)N(CCN2CCOCC2)C3=O)n1 [Example 2, 6,6-Dimethyl-2-{2-[(1-methyl-1H-pyrazol-5-yl)amino]pyrimidin-4-yl}-5-[2-(morpholin-4-yl)ethyl]-5,6-dihydro-4H-thieno[2,3-c]pyrrol-4-one; methanesulfonic acid dihydrate] | 1.2034 | 2.1532 | 2.4082 | – | – | 5.33 | 5.09 | 2.62 | > 20300 | > 9700 | > 19000 | compressibility [4]: improved; powder flowability [4]: improved; sticking to tableting tools [4]: reduced sticking; compaction properties compared with excipients ([1]; versus mannitol SD200 and Lactose Anhydrous): in range with excipients; hygroscopicity profile for drug product manufacturing processes [2]: preferred hygroscopicity profiles; Hygroscopicity, weight increase ([2]; 90% RH, dihydrate): <0.1 wt % increase; Physical stability in prototype tablet ([5]; 40° C./11% RH, 7 days): Stable; Physical stability in prototype tablet ([5]; 40° C./11% RH, 14 days): Stable; Physical stability in prototype tablet ([5]; 40° C./75% RH, 7 days): Stable; Physical stability in prototype tablet ([5]; 40° C./75% RH, 14 days): Stable; Physical stability in prototype tablet ([5]; 40° C./75% RH, 30 days): Stable; Physical stability in prototype tablet ([5]; 50° C./22% RH, 7 days): Stable; Physical stability in prototype tablet ([5]; 50° C./22% RH, 14 days): Stable; Physical stability in prototype tablet ([5]; 50° C./22% RH, 30 days): Stable; Physical stability in prototype tablet ([5]; 50° C./50% RH, 7 days): Stable; Physical stability in prototype tablet ([5]; 50° C./50% RH, 14 days): Stable; Physical stability in prototype tablet ([5]; 50° C./50% RH, 30 days): Stable; physical stability with respect to solution mediated form conversion ([3]; FaSSIF and FedSSIF): physically stable; solubility compared to the free base ([3]; FaSSIF and FedSSIF): higher solubility
CS(=O)(=O)O.Cn1nccc1Nc1nccc(-c2cc3c(s2)C(C)(C)N(CCN2CCOCC2)C3=O)n1 [Example 1, 6,6-Dimethyl-2-{2-[(1-methyl-1H-pyrazol-5-yl)amino]pyrimidin-4-yl}-5-[2-(morpholin-4-yl)ethyl]-5,6-dihydro-4H-thieno[2,3-c]pyrrol-4-one; methanesulfonic acid] | – | – | – | <0.1 wt % | <0.1 | – | – | – | – | – | – | Hygroscopicity, weight increase ([2]; 90% RH): ~4 wt %
Cl.Cn1nccc1Nc1nccc(-c2cc3c(s2)C(C)(C)N(CCN2CCOCC2)C3=O)n1 [Example 4, 6,6-Dimethyl-2-{2-[(1-methyl-1H-pyrazol-5-yl)amino]pyrimidin-4-yl}-5-[2-(morpholin-4-yl)ethyl]-5,6-dihydro-4H-thieno[2,3-c]pyrrol-4-one; hydrochloride, reference compound] | – | – | – | ~0.4 wt. % wt % | ~6 | – | – | – | – | – | – | –
Cn1nccc1Nc1nccc(-c2cc3c(s2)C(C)(C)N(CCN2CCOCC2)C3=O)n1 [Free base, 6,6-Dimethyl-2-{2-[(1-methyl-1H-pyrazol-5-yl)amino]pyrimidin-4-yl}-5-[2-(morpholin-4-yl)ethyl]-5,6-dihydro-4H-thieno[2,3-c]pyrrol-4-one, reference compound] | 0.5415 | 1.0491 | 1.6394 | – | – | 6.70 | 5.36 | 5.05 | 5650 (≈ 12.5 mM) | 3700 (≈ 8.16 mM) | 130 (≈ 0.287 mM) | –
